Tests used:
[1] = test system: A549 cells infected with R. delemar; experiment: R. delemar-induced A549 cell damage (Pierce LDH assay); type: cell-based, human
Protocol: Measurement of R. delemar-induced host cell damage. R. delemar-induced A549 cell damage was quantified using the Pierce LDH Assay with slight modifications to the manufacturer's protocol. Briefly, A549 cells were grown in 96-well tissue culture plates for 18-24 hours. […] For controls, host cells will be incubated with DMSO (the solvent used to reconstitute the inhibitor) or 25 μg/ml of mouse IgG antibody in parallel. After 24 hours of incubation at 37° C., 50 μl of the cell culture supernatant was collected from uninfected, infected, and fungi-only control wells and transferred to a 96 well plate to assay for LDH activity. Lysis buffer was added to all infected wells and incubated for 45 min at 37° C. After lysis, 50 μl of cell culture supernatant was transferred to a 96 well plate and used for the LDH Assay Kit per protocol. LDH release was calculated as follows: % Cytotoxicity=[Experimental release−Fungal Cells Spontaneous Control−Host Cells Spontaneous Control]/[Host Cell Maximum Control−Fungal Cells Maximum Control−Host Cells Spontaneous Control]×100. LDH is a cytosolic enzyme but will be released into the cell culture medium upon cell membrane damage. The amount of extracellular LDH is proportional to the amount of cell damage.
R. delemar-induced A549 cell damage was quantified using the Pierce LDH assay, with slight modifications to the manufacturer's protocol. Briefly, A549 cells were grown in 96-well tissue culture plates for 18 to 24 h. Cells were then pretreated for 1 h with inhibitor and infected with 1×10^6-2×10^6 germlings suspended in 150 μl F-12K plus 10% FBS. For controls, host cells were incubated with the appropriate amount of diluent used to reconstitute the in parallel. After 24 h of incubation at 37° C., 50 μl of the cell culture supernatant was collected from uninfected, infected, and fungus-only control wells and transferred to a 96-well plate to assay for LDH activity. Lysis buffer was added to all infected wells, and the mixture was incubated for 45 min at 37° C. After lysis, 50 μl of cell culture supernatant was transferred to a 96-well plate and used for the LDH assay kit per the protocol. LDH release was calculated as follows: % cytotoxicity=[(experimental release−fungal cell spontaneous control−host cell spontaneous control)/(host cell maximum control−fungal cell maximum control−host cell spontaneous control)]×100. LDH is a cytosolic enzyme but will be released into the cell culture medium upon cell membrane damage. The amount of extracellular LDH is proportional to the amount of cell damage.

R. delemar [2] = experiment: Growth / germination of R. delemar in the absence of host cells; type: cell-based
R. delemar [3] = experiment: Neutropenic mouse model of pulmonary mucormycosis, survival; type: in vivo, mice; details: for protection from pulmonary mucormycosis (survival): 10 mg/kg for 5 consecutive days starting 4 h post infection; for protection from pulmonary mucormycosis, delayed administration: treatment delayed for 30 h post infection, administered alone
Protocol: Murine models of Mucormycosis. Male ICR mice (20-25 g from Envigo) were immunosuppresed by cyclophosphamide (200 mg/kg administered intraperotenually [i.p]) and cortisone acetate (500 mg/kg, adminstered subcutaneously) given on days −2, +3, and +9 relative to infection. […] To control for bacterial infection, immunosuppressed mice received 50 mg/L Baytrial (enrofloxacin: Bayer, Leverkusen, Germany) ad libitum on Day −3 thorough Day 0, after which Baytril was replaced with daily ceftazidime (5 mg/mouse) treatment adminstered subcutaneously through day+13 days post infection. Mice were infected with 2.5×10^5 spores of R. delemar 99-880 in 25 μL PBS given intratracheally as previously described (Luo G, Gebremariam T, Lee H, French S W, Wiederhold N P, Patterson T F, Filler S G, Ibrahim A S. 2013. Efficacy of liposomal amphotericin B and posaconazole in intratracheal models of murine mucormycosis. Antimicrobial agents and chemotherapy 57:3340-7). […] Placebo mice received DMA:PEG300. Survival of mice served as the primary endpoint with moribund mice humanely euthanized. To determine effect of treatment on tissue fungal burden mice were immunosuppressed and infected as above. Gefitinib treatment started 4 post infection and continued through Day +3. On Day +4, mice were sacrificed and lungs and brains, representing primary and secondary target organs (Luo G, Gebremariam T, Lee H, French S W, Wiederhold N P, Patterson T F, Filler S G, Ibrahim A S. 2013. Efficacy of liposomal amphotericin B and posaconazole in intratracheal models of murine mucormycosis. Antimicrobial agents and chemotherapy 57:3340-7), were collected and processed for tissue fungal burden by qPCR (Ibrahim A S, Bowman J C, Avanessian V, Brown K, Spellberg B, Edwards J E, Jr., Douglas C M. 2005. Caspofungin inhibits Rhizopus oryzae 1,3-beta-D-glucan synthase, lowers burden in brain measured by quantitative PCR, and improves survival at a low but not a high dose during murine disseminated zygomycosis. Antimicrobial agents and chemotherapy 49:721-7.) Values are expressed as Log10 spore equivalents per gram tissue.
Statistical Analyses. In vitro experiments were performed in triplicate on two or three separate days. Data were expressed as median±interquartile range. Treatment groups were compared to controls using the Wilcoxon rank-sum test and P values <0.05 were considered significant. For the murine studies, survival of mice was analyzed using the Log Rank test, whereas differences in tissue fungal burden were analyzed by the Wilcoxon Rank Sum test using Graph pad Prism 6. P values of <0.05 were considered significant.

[4] = test system: A549 cells infected with M. circinelloides; experiment: M. circinelloides-induced damage of A549 cells (LDH assay); type: cell-based, human; details: 25 μM Mifepristone overnight and/or 25 μM Gefitinib 1 h, 24 h infection (FIG. 14)
[5] = test system: A549 cells infected with C. bertholletiae; experiment: C. bertholletiae-induced damage of A549 cells (LDH assay); type: cell-based, human; details: 25 μM Mifepristone overnight and/or 25 μM Gefitinib 1 h, 24 h infection (FIG. 14)
[6] = test system: other Mucormycosis-causing fungi; experiment: In vitro infection with other mucormycosis-causing fungi (FIG. 23); type: cell-based
[7] = neutropenic mice infected intratracheally, 10 mg/kg i.p. for 5 consecutive days starting 4 h post infection

For COc1cc2ncnc(Nc3ccc(F)c(Cl)c3)c2cc1OCCCN1CCOCC1 [Gefitinib], the “R. delemar-induced damage of A549 cells (LDH assay)” value ([1]; A549 cells pretreated 1 h with 25 μM Gefitinib or 25 μg/ml Cetuximab, 24 h infection, vs vehicle or IgG1 control antibody) was “significantly reduced”, the “R. delemar-induced damage of alveolar epithelial cells (LDH assay)” value ([1]; Example 3, Mifepristone 25 / Gefitinib 25, 24 h infection, vs vehicle (FIG. 12)) was “significantly decreased” and the “host cell damage after pre-treatment of R. delemar spore preparations” value ([1]; spore preparations pre-treated with drug prior to the infection) was “did not reduce”. The “R. delemar mycelial growth” value (R. delemar [2]) was “no effect”, the “protection from pulmonary mucormycosis (survival)” value (R. delemar [3]) was “protects mice from pulmonary mucormycosis” and the “protection from pulmonary mucormycosis (survival)” value (R. delemar [3]; listed as gefitinib) was “protected”. The 18-day survival (R. delemar [3]; delayed treatment beginning 30 h post infection for 6 consecutive days, 10 mg/kg gefitinib, 20 mg/kg posaconazole or both) was about 30%, the median survival time (R. delemar [3]; [7]) was over 21 days and the “mice survived the infection by Day 21” value (R. delemar [3]; [7]) was 55%. For the same compound, the “protection from pulmonary mucormycosis, delayed administration” value (R. delemar [3]) was “protects mice from pulmonary mucormycosis”, the “protection from pulmonary mucormycosis, delayed administration” value (R. delemar [3]; listed as gefitinib) was “protected mice from pulmonary mucormycosis” and the M. circinelloides-induced damage [4] was “significantly decreased”. For the same compound, the C. bertholletiae-induced damage [5] was “significantly decreased” and the “in vitro infection of other Mucormycosis-causing fungi” value [6] was “Inhibits”.

Reference: patent publication US20210284742A1, “METHODS OF TREATING OR PREVENTING MUCORMYCOSIS” (University of Maryland, Baltimore, priority 2018, published 2021)
